Source: patent US5710174A, “Factor XIIIA inhibitor” (Zymo Genetics, Inc., priority 1995, dated 1998)
Like-named read-outs stand apart in the source and are kept apart here.

Tests used:
FXIIIa = target: T1, FXIIIa (Homo sapiens, UniProt P00488); test: Fibrinogen clotting assay, FXIIIa (gamma-gamma bands scanned); type: biochemical; settings: read-out: % FXIIIa Inhibition
T1 sequence (P00488 39-732 limits assumed): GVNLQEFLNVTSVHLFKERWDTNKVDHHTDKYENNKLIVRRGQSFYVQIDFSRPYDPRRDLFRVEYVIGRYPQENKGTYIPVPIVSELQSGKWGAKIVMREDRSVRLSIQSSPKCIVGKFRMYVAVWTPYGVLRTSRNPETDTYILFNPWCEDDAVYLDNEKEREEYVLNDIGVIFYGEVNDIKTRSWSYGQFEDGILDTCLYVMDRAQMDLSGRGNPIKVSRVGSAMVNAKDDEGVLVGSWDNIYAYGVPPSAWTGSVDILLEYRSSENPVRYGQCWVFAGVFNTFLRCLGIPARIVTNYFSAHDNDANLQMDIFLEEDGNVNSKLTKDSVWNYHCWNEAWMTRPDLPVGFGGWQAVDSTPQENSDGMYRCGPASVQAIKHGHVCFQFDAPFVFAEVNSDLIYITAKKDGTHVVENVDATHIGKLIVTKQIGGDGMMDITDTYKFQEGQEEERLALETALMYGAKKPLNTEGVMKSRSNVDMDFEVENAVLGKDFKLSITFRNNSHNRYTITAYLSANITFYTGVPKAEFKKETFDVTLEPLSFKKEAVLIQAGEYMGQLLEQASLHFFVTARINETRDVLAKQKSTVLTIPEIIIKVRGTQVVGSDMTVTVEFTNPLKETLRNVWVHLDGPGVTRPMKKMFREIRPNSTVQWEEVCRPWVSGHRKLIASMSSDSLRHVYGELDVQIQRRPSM
Protocol: Clots were formed in 1.5 ml Eppendorf tubes by adding reagents to give the following final assay concentrations in a total volume of 100 μl: 2 mg/ml FXIII-free fibrinogen purified on a rabbit anti-FXIII column (Enzyme Research Labs); 20 mM CaCl2; 1 unit/ml thrombin (bovine, Enzyme Research Labs); and either 1 μg/ml FXIIIa (recombinant human FXIIIa2 (ZymoGenetics)) or 20 μg/ml tTG (Sigma) in 120 mM NaCl plus 25 mM Tris at about pH 7.2. In addition, 10 μl of one of the following was added to each tube in varying concentrations to determine a dose response: iodoacetamide, ZG-1400a or cerulenin. The final reaction volume in each Eppendorf tube was adjusted to 100 μl with 120 mMNaCl plus 25 mM Tris at about pH 7.2.
A positive (complete cross-linking) control contained fibrinogen, enzyme (FXIIIa or tTG), calcium, and thrombin at final assay concentrations listed above, and was tested in the absence of any inhibitor. A negative (no cross-linking) control contained a solution of FXIII-free fibrinogen, thrombin and 20 μM EDTA [(ethylene dinitrilo)tetraacetic acid, disodium salt, dihydrate (J. T. Baker, Phillipsburg, N.J.)] in the absence of calcium and enzyme. Both positive and negative controls contained a final DMSO concentration of 1%. The FXIIIa-treated clots and their controls were incubated for about 10 min at about 37° C., while the tTG-treated clots and their controls were incubated for about 4 h at about 37° C. After incubation, all of the clots and controls were frozen to quench reactions.
Frozen clots and controls were boiled for about 3 min, centrifuged at 14,000 RPM for 5 min, and then the supernatant was removed. The clots were resuspended in 100 μl lysis buffer and incubated overnight at 37° C. The lysis buffer Contained 10M urea, 10 mM EDTA, 1% sodium dodecyl sulfate ("SDS"), and 1% 2-mercaptoethanol. After incubation, approximately 5 μl of each sample was brought to a final volume of 20 μl with a reducing sample buffer (containing 125 mM Tris, pH 6.8, 20% glycerol, 4% SDS, 10% 2-mercaptoethanol, and 0.025% bromophenol blue), and applied to 4-15% gradient gels (Integrated Separation Systems, Natick, Mass.) for polyacrylamide electrophoresis (PAGE) at 200 volts for approximately 1 h or until the tracking dye reached the bottom of the gel.
After staining with Coomassie blue, the alpha, beta, and gamma chains of fibrin were visualized as bands on the gel. The presence of FXIIIa-catalyzed fibrin cross-linking was observed by the appearance of a gamma-gamma dimer, and the disappearance of the monomeric gamma band from the gels. The tTG cross-linking occurs by formation of alpha chain polymers and alpha2 -gamma oligomers. Since there are many bands, they are difficult to visualize. A better indication of tTG cross-linking was the disappearance of the monomeric alpha band from the gels. In addition, the gamma band was reduced, but to a lesser degree than in FXIIIa cross-linked clots.
The gels were also scanned on a densitometer (Bio Image Whole Band Analyzer, Millipore Corp., Bedford, Mass.). The relative intensity of gamma-gamma bands were scanned and compared for FXIIIa inhibition, while alpha bands were scanned and compared for tTG inhibition. No cross-linkingwas detected in the negative controls containing only FXIII-free fibrinogen thrombin and DMSO. […] The inhibition results obtained from PAGE of samples prepared as described above, and containing ZG-1400a at 100 μM and 10 μM, or cerulenin or iodoacetamide at 1 mM, 100 μM, and 10 μM, are shown in Table 2.

plasma clots = test: Plasma clot lysis assay; design: species or system human; settings: 100 μM; for % Plasma Clot lysis: clots formed about 20 h, plasminogen and urokinase about 4 h
Protocol: For this assay, 50 μl of one of a series of concentrations of iodoacetic acid, cerulenin, or ZG-1400a was added to 0.5 ml human citrated plasma (prepared from one blood donor) in 5 ml polypropylene tubes. The ZG-1400a and iodoacetic acid were individually prepared in 10% DMSO and tested using half-log dilutions, starting at a final assay concentration of 100 μM and diluting to 10 μM. Cerulenin was prepared in 10% ethanol and tested using half-log dilutions, starting at a final assay concentration of 100 μM and diluting to 10 μM.
Approximately 10^6 cpm ^125 I-fibrinogen (Amersham), 50 mM CaCl2 (20 mM above citrate concentration) and 5 units thrombin (bovine, Enzyme Research Labs) were added to each test and control tube. The tubes were incubated while rocking for 20 h at 37° C. Plasma clots formed in the tubes were washed three times with about 1 ml phosphate buffered saline (PBS). The plasma clots in each tube were counted after the PBS washes.
Approximately 2 ml of 50 mM Tris, pH 7.4, containing 50 mM NaCl, 28 μg plasminogen (human, Calbiochem), and 280 ng urokinase (human, Calbiochem) were added to the clots in test and control tubes. At 1, 2, and 4 h intervals, 25 μl aliquots of the samples were removed from each tube and counted.
The values shown in Table 3 represent the amount of lysis after plasma clots were formed for about 20 h and exposed to plasminogen and urokinase for about 4 h.

[1] = 10 μM, gamma-gamma bands, densitometer
[2] = 100 μM, gamma-gamma bands, densitometer

| Compound | inhibition at 10 µM (FXIIIa) [%] | inhibition at 100 µM (FXIIIa) [%] | inhibition at 1000 µM (FXIIIa) [%] | susceptibility of plasma clots to lysis by plasminogen and urokinase (plasma clots) | % Plasma Clot lysis (plasma clots) [%] | inhibition at 10 µM (FXIIIa; [1]) [%] | inhibition at 100 µM (FXIIIa; [2]) [%] | inhibition at 1000 µM (FXIIIa; 1 mM, gamma-gamma bands, densitometer) [%] |
| --- | --- | --- | --- | --- | --- | --- | --- | --- |
| NC(=O)CI [Iodoacetamide, iodoacetamide] | 66 | 100 | 100 | – | – | – | – | – |
| CC=CCC=CCCC(=O)C1OC1C(N)=O (stereo not drawn) [Cerulenin, 2,3-epoxy-4-oxo-7,10-dodecadienamide] | – | – | – | significantly more susceptible to lysis | 97 | 8 | 38 | 100 |
| C[C@@H]1CCC/C=C\C(=O)Cc2cc(O)cc(O)c2C(=O)O1 [ZG-1400, R(-) enantiomer of cis-resorcylide] | – | – | – | significantly more susceptible to lysis | 46 | 66 | 100 | – |
